The values that follow come from US20230203060A1 (GENFLEET THERAPEUTICS (SHANGHAI) INC., priority 2020, published 2023).

Holding throughout (assay type): cell-based, human
Experiment [1] has as its system KRAS G12C mutant NCI-H358 cells. Nature of the experiment: Cell proliferation inhibition experiment, 3D spheroid, CellTiter-Glo, NCI-H358. The following applies: Homo sapiens, NCI-H358, 120 h, NCI-H358 (KRAS G12C mutant) 3D spheroid, 5 days with compound, CellTiter-Glo; read-out: H358 IC50. From the text: (§1) Raw materials and instruments: NCI-H358 purchased from ATCC; article number: CRL-5807; batch number: 70010825; A549 purchased from ATCC; article number: CCL-185; batch number: 70007820; RPMI1640 purchased from Gibco; article number: 11875-093; batch number: 2152748; F-12K purchased from Gibco; article number: 21127-022; batch number: 2185853; FBS purchased from Gibco; article number: 10099-141; batch number: 2109290CP; PS purchased from Gibco; article number: 15140-122; batch number: 2145451; Trypsin-EDTApurchased from Gibco; article number: 25200-072; batch number: 2085552; CellTiter Glo working solution purchased from Promega; article number: G9683; batch number: 398478; DMSO purchased from VWR AMRESCO; article number: 0231-500ML; batch number: 18C0656168; 384-well spheroid plate purchased from Corning; article number: 3830; batch number: 27519032; white opaque 384-well plate purchased from Corning; article number: 3570; batch number: 26819023; microplate reader purchased from PerkinElmer; model: Envision MLD2105-0020; equipment number 1050369.
(§2) NCI-H358 is a KRAS G12C mutant human non-small cell lung cancer cell line, cultured in 10% FBS RPMI-1640+1% PS culture medium; and A549 is a KRAS G12S mutant human lung adenocarcinoma cell line, cultured in 10% FBS F-12K+1% PS culture medium. Cells at logarithmic growth stage were taken, digested with trypsin-EDTA, then collected and counted. H358 was adjusted to 1.8 E4 cells/mL with 2% FBS RPMI-1640 culture medium, and A549 was adjusted to 8.9 E3 cells/mL with 2% FBS F-12K culture medium; 800 (45 μL) H358 or 400 (45 μL) A549 were inoculated respectively in a 384-well spheroid plate and cultured overnight to establish a 3D cell model. A 3.16-fold gradient concentration stock solution of 1000× compound was prepared with DMSO, and diluted 100-fold to 10× compound stock solution with 2% FBS culture medium. On the second day after cell inoculation, 5 μL of 10× compound stock solution was added to each cell culture well, with a final concentration of 1× and a DMSO content of 0.1%. DMSO was used as experimental control (control), and 2% FBS culture medium was used as blank control (blank). After 5 days of compound cell culture, 25 μL of CellTiter-Glo working solution was added to each well, mixed well at 400 rpm and incubated for 30 minutes. After standing at room temperature for 30 minutes, 40 μL of the mixed solution was transferred to a white opaque 384-well plate, and the luminescence chemiluminescence value was read with a microplate reader. The cell proliferation inhibition rate IR (%)=(RLU control -RLU compound)/(RLU control -RLU blank) x100% was calculated. The gradient dilution concentration of the compound and the corresponding cell proliferation inhibition rate were fitted by Prism 6 four-parameter method, and the IC50 value was calculated. The inhibitory activity of the compounds prepared in the above embodiments of the present disclosure on KRAS G12C mutant NCI-H358 cells was 0.0001 μM to 0.5 μM; the inhibitory activity of some compounds on KRAS G12C mutant NCI-H358 cells was 0.001 μM to 0.1 μM or 0.001 μM to 0.05 μM.

Experiment [2] concerns A549 cells (KRAS G12S mutant). Nature of the experiment: Cell proliferation inhibition experiment, 3D spheroid, CellTiter-Glo, A549. The conditions noted are these: Homo sapiens, A549, 120 h, A549 (KRAS G12S mutant) 3D spheroid, 5 days with compound, CellTiter-Glo; read-out: A549 IC50.
Excerpt: as §1, §2

The subject of experiment [3] is KRAS G12C mutant MIA PaCa-2 cells. In words: Cell proliferation inhibition experiment, 3D spheroid, CellTiter-Glo, MIA PaCa-2. The following applies: Homo sapiens, MIA PaCa-2, 120 h, 3D cell model in 384-well spheroid plate, 5 days, CellTiter-Glo; read-out: MIA-PaCa2 IC50. From the text: Raw materials and instruments: MIA PaCa-2 purchased from ATCC; article number: CRL-1420; batch number: 63143594; DMEM purchased from Gibco; article number: 11995-065; batch number: 2186878; FBS purchased from Gibco; article number: 10099-141; batch number: 2109290CP; Horse Serum purchased from Gibco; article number: 16050-122; batch number: 1818976; PS purchased from Gibco; article number: 15140-122; batch number: 2145451; Trypsin-EDTA purchased from Gibco; article number: 25200-072; batch number: 2085552; CellTiter Glo working solution purchased from Promega; article number: G9683; batch number 398478; DMSO purchased from VWR AMRESCO; article number: 0231-500ML; batch number: 18C0656168; 384-well spheroid plate purchased from Corning; article number: 3830; batch number: 27519032; white opaque 384-well plate purchased from Corning; article number: 3570; batch number: 26819023; microplate reader purchased from PerkinElmer; model: Envision MLD2105-0020; equipment number 1050369.
MIA PaCa-2 is a KRAS G12C mutant human pancreatic cancer cell line, cultured in 10% FBS+2.5% Horse Serum DMEM+1% PS culture medium; cells at logarithmic growth stage were taken, digested with trypsin-EDTA, then collected and counted, and 200 MIA PaCa-2 were inoculated in a 384-well spheroid plate, respectively, and cultured overnight to establish a 3D cell model. A 3.16-fold gradient concentration stock solution of 1000× compound was prepared with DMSO, and diluted 100-fold to 10× compound stock solution with culture medium. On the second day after cell inoculation, 10× compound stock solution was added to each cell culture well, with a final concentration of 1× and a DMSO content of 0.1%. DMSO was used as experimental control (control), and culture medium was used as blank control (blank). After 5 days of compound cell culture, 30 μL of CellTiter-Glo working solution was added to each well, mixed well and incubated for 30 minutes. After standing at room temperature for 30 minutes, 40 μL of the mixed solution was transferred to a white opaque 384-well plate, and the luminescence chemiluminescence value was read with a microplate reader. The cell proliferation inhibition rate IR (%)=(RLU control -RLU compound)/(RLU control−RLU blank)×100% was calculated. The gradient dilution concentration of the compound and the corresponding cell proliferation inhibition rate were fitted by XLFit four-parameter method, and the IC50 value was calculated. The inhibitory activity of the compounds prepared in the above embodiments of the present disclosure on KRAS G12C mutant MIA PaCa-2 cells was 0.0001 μM to 0.5 μM; the inhibitory activity of some compounds on KRAS G12C mutant MIA PaCa-2 cells was 0.001 μM to 0.1 μM or 0.001 μM to 0.05 μM.

On to `C=CC(=O)N1CCN2C(=O)c3c(Nc4c(C)ccnc4C(C)C)nc(-c4c(O)cccc4F)c(F)c3OC[C@H]2C1` [Z9, (6aR)-8-acryloyl-4-fluoro-3-(2-fluoro-6-hydroxyphenyl)-1-((2-isopropyl-4-methylpyridin-3-yl)amino)-6,6a,7,8,9,10-hexahydro-12H-pyrazino[2,1-c]pyrido[3,4-f][1,4]oxazepin-12-one], for which the IC50 amounted to 23 nM in experiment [1], 11300 nM in experiment [2] and 95 nM in experiment [3].
In the same order, the values of `C=CC(=O)N1CCN2C(=O)c3c(N4CCOCC4)nc(-c4c(O)cccc4F)c(Cl)c3OC[C@H]2C1` [Z10, (6aR)-8-acryloyl-4-chloro-3-(2-fluoro-6-hydroxyphenyl)-1-morpholino-6,6a,7,8,9,10-hexahydro-12H-pyrazino[2,1-c]pyrido[3,4-f][1,4]oxazepin-12-one] are 39 nM, > 20000 nM and 67 nM.
Taken in the same sequence, the figures for `C=CC(=O)N1CCN2C(=O)c3c(N4CCCC4)nc(-c4c(O)cccc4F)c(Cl)c3OC[C@H]2C1` [Z11, (6aR)-8-acryloyl-4-chloro-3-(2-fluoro-6-hydroxyphenyl)-1-(pyrrolidin-1-yl)-6,6a,7,8,9,10-hexahydro-12H-pyrazino[2,1-c]pyrido[3,4-f][1,4]oxazepin-12-one] were 42 nM, 9340 nM and 64 nM.
In the same order, the values of `C=CC(=O)N1CCN2Cc3c(Nc4c(C)ccnc4C(C)C)nc(-c4c(O)cccc4F)c(Cl)c3OC[C@H]2C1` [Z19, 1-((6aR)-4-chloro-3-(2-fluoro-6-hydroxyphenyl)-1-((2-isopropyl-4-methylpyridin-3-yl)amino)-6a,7,9,10-tetrahydro-12H-pyrazino[2,1-c]pyrido[3,4-f][1,4]oxazepin-8(6H)-yl)prop-2-en-1-one] are 35 nM, > 30000 nM and 63 nM.
As for `C=CC(=O)N1CCN2C(=O)c3c(N4CCO[C@@H](C)C4)nc(-c4c(O)cccc4F)c(Cl)c3OC[C@H]2C1` [Z23, (6aR)-8-acryloyl-4-chloro-3-(2-fluoro-6-hydroxyphenyl)-1-((S)-2-methylmorpholino)-6,6a,7,8,9,10-hexahydro-12H-pyrazino[2,1-c]pyrido[3,4-f][1,4]oxazepin-12-one], the IC50 is 50 nM in experiment [1], > 5000 nM in experiment [2] and 73 nM in experiment [3].
In the same order, the values of `C=CC(=O)N1CCN2C(=O)c3c(N4CCO[C@H](C)C4)nc(-c4c(O)cccc4F)c(Cl)c3OC[C@H]2C1` [Z24, (6aR)-8-acryloyl-4-chloro-3-(2-fluoro-6-hydroxyphenyl)-1-((R)-2-methylmorpholino)-6,6a,7,8,9,10-hexahydro-12H-pyrazino[2,1-c]pyrido[3,4-f][1,4]oxazepin-12-one] are 26 nM, > 5000 nM and 36 nM.
In the same order, the values of `C=CC(=O)N1CCN2C(=O)c3c(N(C)C4CCOCC4)nc(-c4c(O)cccc4F)c(Cl)c3OC[C@H]2C1` [Z25, (6aR)-8-acryloyl-4-chloro-3-(2-fluoro-6-hydroxyphenyl)-1-(methyl(tetrahydro-2H-pyran-4-yl)amino)-6,6a,7,8,9,10-hexahydro-12H-pyrazino[2,1-c]pyrido[3,4-f][1,4]oxazepin-12-one] are 58 nM, > 20000 nM and 81 nM.
Taken in the same sequence, the figures for `C=CC(=O)N1CCN2C(=O)c3c(N4CCOC[C@H]4C)nc(-c4c(O)cccc4F)c(Cl)c3OC[C@H]2C1` [Z27, (6aR)-8-acryloyl-4-chloro-3-(2-fluoro-6-hydroxyphenyl)-1-((R)-3-methylmorpholino)-6,6a,7,8,9,10-hexahydro-12H-pyrazino[2,1-c]pyrido[3,4-f][1,4]oxazepin-12-one] were 33 nM, > 5000 nM and 41 nM.
For `C=CC(=O)N1CCN2C(=O)c3c(N[C@@H](C)c4ccccc4)nc(-c4c(O)cccc4F)c(Cl)c3OC[C@H]2C1` [Z29, (6aR)-8-acryloyl-4-chloro-3-(2-fluoro-6-hydroxyphenyl)-1-(((S)-1-phenylethyl)amino)-6,6a,7,8,9,10-hexahydro-12H-pyrazino[2,1-c]pyrido[3,4-f][1,4]oxazepin-12-one], the IC50 in experiment [1] is 30 nM; in experiment [2] it was 2430 nM; in experiment [3], 77 nM.
Taken in the same sequence, the figures for `C=CC(=O)N1CCN2C(=O)c3c(N4CCN(C)CC4)nc(-c4c(O)cccc4F)c(Cl)c3OC[C@H]2C1` [Z30, (6aR)-8-acryloyl-4-chloro-3-(2-fluoro-6-hydroxyphenyl)-1-(4-methylpiperazin-1-yl)-6,6a,7,8,9,10-hexahydro-12H-pyrazino[2,1-c]pyrido[3,4-f][1,4]oxazepin-12-one] were 40 nM, > 20000 nM and 41 nM.
With `C=CC(=O)N1CCN2C(=O)c3c(N4CCC5(CCCC5)C4)nc(-c4c(O)cccc4F)c(Cl)c3OC[C@H]2C1` [Z34, (6aR)-8-acryloyl-4-chloro-3-(2-fluoro-6-hydroxyphenyl)-1-(2-azaspiro[4.4]nonan-2-yl)-6,6a,7,8,9,10-hexahydro-12H-pyrazino[2,1-c]pyrido[3,4-f][1,4]oxazepin-12-one], the 50% inhibitory concentration (IC50) in experiment [1] stood at 32 nM; in experiment [2], 4910 nM; in experiment [3] it was 81 nM.
